Laboratory results: ChEMBL document CHEMBL1201862, “PubChem BioAssay data set” (2004)
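Compound exposure: 48 hours, 5 concentrations, 96-well plates. GI50 = concentration required for 50% inhibition of growth.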 The source made the active and inactive calls. Rule as the data show it: active = GI50 up to about 1.1 µM and inactive = higher.

Key:
Experiment in all cases: growth of human tumour cells (NCI), 48 h
SK-MEL-28 = tested on: SK-MEL-28
786-0 = tested on: 786-0
A549 = tested on: A549
MDA-MB-435 = tested on: MDA-MB-435
HCT-116 = tested on: HCT-116
A498 = tested on: A498
OVCAR-3 = tested on: OVCAR-3
SN12C = tested on: SN12C
SR = tested on: SR
KM12 = tested on: KM12
MOLT-4 = tested on: MOLT-4
NCI-H522 = tested on: NCI-H522
K562 = tested on: K562
UACC-257 = tested on: UACC-257
MDA-MB-231 = tested on: MDA-MB-231
RPMI-8226 = tested on: RPMI-8226
CCRF-CEM = tested on: CCRF-CEM

Measured: GI50

CC(C)(C)c1ccc(CN2CCN(C(c3ccccc3)c3ccc(Cl)cc3)CC2)cc1 (configuration not stated)
inactive: SK-MEL-28 65.5 µM | 786-0 42.4 µM | A549 32.5 µM | MDA-MB-435 57.9 µM | HCT-116 25.7 µM | A498 > 100 µM | OVCAR-3 58.7 µM | SN12C > 100 µM | SR 62.2 µM | KM12 78 µM | MOLT-4 44.6 µM | NCI-H522 23.4 µM | K562 36.6 µM | UACC-257 35.9 µM | MDA-MB-231 > 100 µM | RPMI-8226 33.3 µM

COc1cccc(-c2nc(O)c3ccccc3n2)c1
inactive: SK-MEL-28 28.1 µM | 786-0 14.9 µM | CCRF-CEM > 10 µM | A549 21 µM | MDA-MB-435 14.9 µM | HCT-116 22.5 µM | A498 22.4 µM | OVCAR-3 21.2 µM | SN12C 33.9 µM | SR > 100 µM | KM12 25 µM | MOLT-4 86.5 µM | NCI-H522 23.2 µM | K562 38.5 µM | UACC-257 21.7 µM | MDA-MB-231 25.3 µM

O=C1c2cscc2C(=O)c2c(OCc3ccccc3)ccc(OCc3ccccc3)c21
inactive: SK-MEL-28 > 100 µM | 786-0 58.2 µM | CCRF-CEM 53.8 µM | A549 > 100 µM | MDA-MB-435 > 100 µM | HCT-116 91.6 µM | OVCAR-3 > 100 µM | SN12C > 100 µM | SR 54 µM | KM12 > 100 µM | MOLT-4 > 100 µM | NCI-H522 > 100 µM | K562 61.1 µM | UACC-257 > 100 µM | MDA-MB-231 > 100 µM | RPMI-8226 > 100 µM

CC1=CC=CC(C)(C)CC1(O[Si](C)(C)C)C(F)(F)F (configuration not stated)
inactive: SK-MEL-28 > 100 µM | 786-0 > 100 µM | CCRF-CEM > 100 µM | A549 64.3 µM | MDA-MB-435 > 100 µM | HCT-116 > 100 µM | A498 > 100 µM | OVCAR-3 > 100 µM | SN12C > 100 µM | SR > 100 µM | KM12 > 100 µM | NCI-H522 43.3 µM | K562 76.4 µM | UACC-257 > 100 µM | MDA-MB-231 > 100 µM | RPMI-8226 > 100 µM

CCN1C/C(=C\c2ccc(Cl)cc2)c2[nH]c(=O)c(C#N)c(-c3ccc(Cl)cc3)c2C1
inactive: SK-MEL-28 > 100 µM | 786-0 > 100 µM | CCRF-CEM 71.6 µM | A549 > 100 µM | MDA-MB-435 > 100 µM | HCT-116 > 100 µM | A498 > 100 µM | OVCAR-3 > 100 µM | SN12C > 100 µM | SR 18.4 µM | KM12 > 100 µM | MOLT-4 21.2 µM | K562 > 100 µM | UACC-257 > 100 µM | MDA-MB-231 > 100 µM | RPMI-8226 > 100 µM

CC(C)N(C(C)C)S(=O)(=O)CC12CCC(C/C1=N\O)C2 (configuration not stated)
inactive: SK-MEL-28 > 100 µM | 786-0 > 100 µM | CCRF-CEM > 100 µM | A549 > 100 µM | MDA-MB-435 > 100 µM | HCT-116 > 100 µM | OVCAR-3 > 100 µM | SN12C > 100 µM | SR > 100 µM | KM12 > 100 µM | MOLT-4 > 100 µM | NCI-H522 > 100 µM | K562 > 100 µM | UACC-257 > 100 µM | MDA-MB-231 > 100 µM

COc1ccc2c(c1)C(N)=C(c1ccccc1)C2=O
inactive: SK-MEL-28 > 100 µM | 786-0 80.4 µM | CCRF-CEM > 100 µM | A549 64.6 µM | MDA-MB-435 > 100 µM | HCT-116 58.3 µM | A498 > 100 µM | OVCAR-3 > 100 µM | SN12C 99.3 µM | SR 8.75 µM | KM12 36.6 µM | MOLT-4 58.5 µM | NCI-H522 > 100 µM | UACC-257 > 100 µM | MDA-MB-231 51.3 µM | RPMI-8226 96.4 µM

N#CC1C=Cc2ccccc2N1C(=O)Oc1ccccc1 (configuration not stated)
inactive: SK-MEL-28 > 100 µM | 786-0 56.5 µM | CCRF-CEM 19.9 µM | A549 49.2 µM | MDA-MB-435 23.7 µM | HCT-116 38.7 µM | A498 33.1 µM | SN12C 45.9 µM | SR 33.8 µM | KM12 37.2 µM | MOLT-4 28.2 µM | NCI-H522 22 µM | K562 32.3 µM | UACC-257 76.9 µM | MDA-MB-231 68.2 µM | RPMI-8226 21.3 µM

O=C1CC(=O)NC(NNS(=O)(=O)c2ccccc2)=N1
inactive: SK-MEL-28 > 100 µM | 786-0 > 100 µM | CCRF-CEM > 100 µM | A549 > 100 µM | MDA-MB-435 > 100 µM | HCT-116 > 100 µM | OVCAR-3 > 100 µM | SN12C > 100 µM | SR > 100 µM | KM12 > 100 µM | MOLT-4 > 100 µM | NCI-H522 > 100 µM | K562 > 100 µM | UACC-257 > 100 µM | MDA-MB-231 > 100 µM | RPMI-8226 > 100 µM

O=C(O)CN(CC(=O)O)Cc1ccn(-c2cccc(-n3ccc(CN(CC(=O)O)CC(=O)O)n3)n2)n1
inactive: SK-MEL-28 > 100 µM | 786-0 > 100 µM | A549 17.4 µM | MDA-MB-435 3.53 µM | HCT-116 > 100 µM | OVCAR-3 > 100 µM | SN12C > 100 µM | SR > 100 µM | KM12 > 100 µM | MOLT-4 > 100 µM | NCI-H522 > 100 µM | UACC-257 > 100 µM | MDA-MB-231 > 100 µM | RPMI-8226 > 100 µM

N#CCC(=O)Nn1c(CC#N)nnc1Cc1ccccc1
inactive: SK-MEL-28 > 100 µM | 786-0 > 100 µM | A549 > 100 µM | MDA-MB-435 > 100 µM | HCT-116 > 100 µM | OVCAR-3 > 100 µM | SN12C > 10 µM | SR > 100 µM | KM12 > 100 µM | MOLT-4 > 100 µM | NCI-H522 > 100 µM | K562 > 100 µM | UACC-257 > 100 µM | MDA-MB-231 > 100 µM | RPMI-8226 > 100 µM

COc1c(O)cc2ccnc3c2c1N(C)C=C3
inactive: SK-MEL-28 > 100 µM | 786-0 83.8 µM | A549 > 100 µM | MDA-MB-435 > 100 µM | HCT-116 67.3 µM | A498 > 100 µM | OVCAR-3 > 100 µM | SN12C 67.6 µM | SR 10.1 µM | KM12 > 100 µM | MOLT-4 91.6 µM | K562 > 100 µM | UACC-257 > 100 µM | MDA-MB-231 > 100 µM | RPMI-8226 > 100 µM

CCOC(=O)C1C[C@H]2CO[C@H](c3ccccc3)N2C1=O (some centres not stated)
inactive: SK-MEL-28 > 100 µM | 786-0 > 100 µM | CCRF-CEM > 100 µM | A549 > 100 µM | MDA-MB-435 > 100 µM | HCT-116 > 100 µM | OVCAR-3 > 100 µM | SN12C > 100 µM | SR > 100 µM | KM12 > 100 µM | MOLT-4 > 100 µM | NCI-H522 > 100 µM | K562 > 100 µM | UACC-257 > 100 µM | MDA-MB-231 > 100 µM | RPMI-8226 > 100 µM

COc1ccc(/C=N/Nc2nc3ccccc3c(=O)n2-c2ccccc2)cc1
inactive: SK-MEL-28 > 100 µM | 786-0 > 100 µM | CCRF-CEM > 100 µM | A549 > 100 µM | MDA-MB-435 > 100 µM | HCT-116 > 100 µM | A498 > 100 µM | OVCAR-3 > 100 µM | SN12C > 100 µM | SR 60.7 µM | KM12 > 100 µM | MOLT-4 > 100 µM | NCI-H522 > 100 µM | K562 > 100 µM | UACC-257 > 100 µM | MDA-MB-231 > 100 µM

O=C1CSC(c2c[nH]c3ccccc23)N1c1ccccc1[N+](=O)[O-] (configuration not stated)
inactive: SK-MEL-28 > 100 µM | 786-0 > 100 µM | CCRF-CEM > 100 µM | A549 > 100 µM | MDA-MB-435 > 100 µM | HCT-116 > 100 µM | OVCAR-3 > 100 µM | SN12C > 100 µM | SR > 100 µM | KM12 > 100 µM | MOLT-4 > 100 µM | NCI-H522 > 100 µM | K562 > 100 µM | UACC-257 > 100 µM | MDA-MB-231 > 100 µM | RPMI-8226 > 100 µM

O=C1/C(=C/c2ccc([N+](=O)[O-])cc2)CCCc2ccccc21
inactive: SK-MEL-28 > 100 µM | 786-0 > 100 µM | CCRF-CEM > 100 µM | A549 > 100 µM | MDA-MB-435 > 100 µM | HCT-116 > 100 µM | OVCAR-3 > 100 µM | SN12C > 100 µM | SR > 100 µM | KM12 > 100 µM | MOLT-4 > 100 µM | NCI-H522 > 100 µM | K562 > 100 µM | UACC-257 > 100 µM | MDA-MB-231 > 100 µM | RPMI-8226 > 100 µM

CSc1ccc2c(c1)c(CCN)c(C)n2Cc1ccccc1Cl
inactive: SK-MEL-28 1.75 µM | 786-0 1.72 µM | CCRF-CEM 1.51 µM | A549 1.68 µM | MDA-MB-435 1.67 µM | HCT-116 1.63 µM | A498 1.71 µM | OVCAR-3 1.86 µM | SN12C 1.58 µM | SR 2.42 µM | KM12 1.82 µM | NCI-H522 1.5 µM | K562 1.69 µM | UACC-257 1.73 µM | MDA-MB-231 1.84 µM | RPMI-8226 1.42 µM
